Data taken from patent US20250375416A1, “SERINE PROTEASE INHIBITORY EFFECTS OF HEALTH SUPPLEMENTS IN HUMAN CANCEROUS CELL LINES” (priority 2022, published 2025).

What was measured:
Trypsin = target: T1, Trypsin (Sus scrofa, UniProt P00761); test: Trypsin inhibition by health supplements in confluent A549 cells (cell detachment, crystal violet staining, microscopy); assay type: cell-based; conditions: for concentration at end point dilution of trypsin inhibition: FIG. 11, 0.125% trypsin, serial dilutions in 24 well plate; for concentration at end point of trypsin inhibitory effects: FIG. 13, cell morphology under microscope vs cell and trypsin control
T1 construct: purchased Gibco Lot no-2455123
T1 sequence (P00761 9-231): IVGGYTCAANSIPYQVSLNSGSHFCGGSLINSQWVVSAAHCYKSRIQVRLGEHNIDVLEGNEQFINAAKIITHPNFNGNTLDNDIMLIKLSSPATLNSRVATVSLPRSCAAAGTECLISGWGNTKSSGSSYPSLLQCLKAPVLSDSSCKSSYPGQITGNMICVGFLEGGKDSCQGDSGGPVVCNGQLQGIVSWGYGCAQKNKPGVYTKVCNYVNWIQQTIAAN
Method: In a preferred embodiment, supplements are diluted two to five-fold dilutions (where ever necessary) in PBS (pH 7.4) either as single component and/or various combinations and tested in cell lines grown in either 6, 12, 24 and/or 48 well plates. Cell (CC) and trypsin control (TC) were kept as protease negative and positive indicators in every experiment. Trypsin-EDTA (Gibco Lot no-2455123, Canada) was added into all wells (0.125%) expect cell control wells.
(§1) Fluids from the plate was discarded and washed twice with PBS. Following wash the plate was stained with 1% crystal violet in […] at room temperature for 5 minutes. Following incubation, crystal violet from each well was discarded and washed two to three times with PBS and removed any excess dye from each well.
(§2) Health supplements were collected from pharmaceutical laboratory and were randomly screened in one of the lungs cancer cell lines called A549 for their protease inhibitory effects. Cells were cultivated in 6 well plate using standard technique until confluent. Once the plate is ready, culture media from each well were removed and washed two times with PBS. Following wash, 500 μl of supplements at appropriate dilutions were added into well followed by 500 μl of trypsin (0.25%) to each well except the well having cell control (CC). Plate was incubated at 37° C. and checked at every 5 minutes to see the effect of trypsin on cell morphology. Once cells in trypsin control well lift off from the surface, discard fluid from all wells, wash two times with PBS and stained cells by 1% crystal violet (in alcohol) for two-three minutes. Following staining wells were washed 2-3 times with PBS in order to remove excess dye and finally checked the cell morphology using inverted microscope as well as by naked eye (FIG. 7, 8).
A further experiment was conducted using serine proteases (Trypsin and Elastase) against two formulations of health supplements such as Vitamin C and combination Vitamins C (PC Drug Center Ltd, Bangkok, Thailand) with Thiamine (B1-Roche, lot no: 8077395)) and Pyridoxine (B6, Roche, lot no: 8079496). This formulation of three vitamins is designed as tbc and experiment was conducted in six well plate with confluent A549 cells using technique described in [0044].
The end point of trypsin inhibition of each supplement was calculated in terms of μg/ml. The cell morphologies were also observed by under inverted microscope (4×10) and are shown FIG. 12-15.

Elastase = target: T2, Elastase (Sus scrofa, UniProt P00772); test: Elastase inhibition by health supplements in confluent A549 cells (cell detachment, crystal violet staining, microscopy); assay type: cell-based
T2 construct: purchased SIGMA E017-5 mg
T2 sequence (P00772 27-266): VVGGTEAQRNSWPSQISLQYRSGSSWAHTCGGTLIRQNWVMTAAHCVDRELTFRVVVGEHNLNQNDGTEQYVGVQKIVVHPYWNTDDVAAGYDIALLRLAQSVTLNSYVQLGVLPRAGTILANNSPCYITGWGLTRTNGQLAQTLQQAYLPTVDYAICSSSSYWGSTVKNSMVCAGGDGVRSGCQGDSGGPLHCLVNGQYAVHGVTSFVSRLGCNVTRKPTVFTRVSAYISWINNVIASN
Method: as §1
In a solution of the preferred inhibitor of the present invention in which the inhibitor and trypsin are present in a concentration greater 0.355 mM verses 0.524 mM such inhibitor would react >95% of an equivalent molecular amount of trypsin.
as §2, with “Following staining wells were washed 2-3 times with PBS in order to remove excess dye and finally checked the cell morphology using inverted microscope as well as by naked eye (FIG. 7, 8).” left out

[1] = FIG. 12, trypsin at 1.25% concentration, microscopy

`Cc1ncc(C[n+]2csc(CCO)c2C)c(N)n1` [B1, Thiamine] was tested, and the “concentration at end point dilution of trypsin inhibition” value (shortened to “concentration … of trypsin inhibition”) (Trypsin) was 1.0% and the “concentration at end point of trypsin inhibitory effects” value (Trypsin) was 1.0%.
`Cc1ncc(CO)c(CO)c1O` [B6, Pyridoxine] was tested, and the “concentration … of trypsin inhibition” value (Trypsin) was 0.5% and the “concentration at end point of trypsin inhibitory effects” value (Trypsin) was 0.5%.
`O=C1O[C@H]([C@@H](O)CO)C(O)=C1O` [AC-1, Ascorbic acid] was tested, and the “concentration … of trypsin inhibition” value (Trypsin) was 0.25%, the “concentration efficiently neutralizing catalytic activities of trypsin” value (Trypsin; [1]) was 0.25% and the “concentration from which capability of neutralization of trypsin starts to be lost” value (Trypsin; [1]) was 0.125%.
`O=C1O[C@H]([C@@H](O)CO)C(O)=C1O` [vitamin C, Ascorbic acid] was tested, and the “inhibition of enzymatic activities of Trypsin (T)” value (Trypsin; FIG. 7, A549 cells, compared with cell control (CC) and trypsin control (TC)) was “showed inhibitions of enzymatic activities”, the “level of inhibition against trypsin” value (Trypsin; FIG. 9, A549, six well plate, 1.25% trypsin, Ascorbic acid 2.5% alone or tbc (Ascorbic acid 2.5%, Thiamine 0.1%, Pyridoxine 0.15%)) was “good level of inhibition” and the “inhibition of enzymatic activities of Elastase (E)” value (Elastase; FIG. 7, A549 cells, compared with cell control (CC) and elastase control (EC)) was “showed inhibitions of enzymatic activities”. The “level of inhibition against elastase” value (Elastase; FIG. 9, A549, six well plate, 0.5% elastase, Ascorbic acid 2.5% alone or tbc (Ascorbic acid 2.5%, Thiamine 0.1%, Pyridoxine 0.15%)) was “good level of inhibition”.
